Tests used:
γ-globin gene promoter = assay: Dual luciferase reporter assay (μLCRβprRlucAγprFluc cassette) in GM979 cells; format: cell-based; settings: Resveratrol at 10 μM, MS-275 at 5 μM
From the text: Cell-based screen for γ-globin inducing compounds in GM979 cells (Skarpidi, et al. Blood 2000; 96:321-326). Mini-gene construct integrated into GM979 cell genome. The readout is Firefly/Renilla luciferase ratio, and is designed to identify only strong inducers of the γ-globin promoter, and specificity for the γ- vs. the […]γ-globin gene. This second assay confirmed 12/15 candidates.
This assay is […], and consists of a dual-luciferase reporter construct containing the LCR and the […] luciferase and the Aγ-globin promoter linked to firefly luciferase (μLCRβprRlucAγprFluc cassette), stably-transfected into GM979 cells. The orientation of the promoters and μLCR allowed detection only of strong, specific inducers of the γ-globin gene promoter. This assay is also been predictive of in vivo HbF-inducing activity.
The γ-globin-specificity of hits was determined in a secondary assay employing a stably-transfected dual-luciferase reporter construct containing the LCR and the β-globin promoter linked to renilla luciferase and the Aγ-globin promoter linked to firefly luciferase (μLCRβprRlucAγprFluc cassette) (FIG. 2B).

γ-globin mRNA [1] = assay: γ-globin mRNA in cultured primary human erythroid progenitors (BFU-e), real-time PCR; format: cell-based
Procedure: Erythroid progenitors were cultured from cord blood CD34+ cells. […] Each compound was tested in three different cultures. […] On day 14, RNA was extracted from cultured erythroid cells, and relative quantification PCR was performed. Briefly, cDNA was generated from equal amounts of total RNA extracted using The PerfectPure RNA Purification Kit (5 Prime Inc Gaithersburg, Md.). Real-time PCR was performed using an ABI 7500 Real-Time PCR system (Applied Biosystems, Foster City, Calif.). Levels of globin mRNA were calculated by the ΔΔCt method. […] GAPDH levels were used for standardization. Western blotting Nuclear extract of K562 cells and 14-day-old BFU-e were analyzed by electrophoresis using 5-24% gradient SDS-polyacrylamide mini-gels (BIORAD Laboratories. Hercules Calif.). Proteins in the gels were transferred to Immobilon-P membranes. Blots were then incubated with BCL11A polyclonal (Novus Biologicals, Littleton Co) or mouse monoclonal (Santa Cruz Biotechnology, Santa Cruz Calif.) antibodies, after washing blots were incubated with anti-rabbit IgG-horseradish peroxidase secondary antibody (ECL, Little Chalfont Buckinghamshire UK). BCL11A bands were detected on the X-ray film using Western Lightning Reagents (Perking Elmer Inc, Waltham, Mass.).

γ-globin mRNA [2] = assay: γ-globin mRNA gene expression in K562 cells; format: cell-based
CB BFU-E cells = assay: CB BFU-E cell proliferation (cells/colony); settings: FIG. 8
Procedure: Fetal globin-inducing activity in human erythroid progenitors was assessed. Human erythroid progenitors were cultured from peripheral blood samples, exposed to the test compounds at varying concentrations and for varying durations and analyzed for globin chain mRNA ratios. Erythroid progenitors were cultured from cord blood CD34+ cells. Briefly, CD34+ cells in the human cord blood were separated using a Ficoll-paque density gradient. CD34+ cells were cultured in H4230 medium containing 2 mM L-glutamine, 1% Methylcellulose in Iscove's Medium, 30% Fetal Bovine Serum, 1% Bovine Serum Albumin and 10^-4 M β-mercaptoethanol. Methylcellulose H4230 medium was supplemented with EPO (0.5 U/ml) and IL-3 (20 ng/ml) to support BFU-e growth. Cells were cultured in […] mini-dishes and incubated in a humidified atmosphere containing 5% CO2, at 37° C. Different concentrations of the test compounds were added at the time the cultures were established. Each compound was tested in three different cultures. BFU-e colonies grown in mini-dishes were counted on day 14 and harvested for mRNA analysis.

histone deacetylases = assay: Histone deacetylase inhibition
γ-globin mRNA [3] = assay: γ-globin mRNA in cultured primary human erythroid progenitors (BFU-e), real-time PCR; format: cell-based; settings: Resveratrol 0.2 uM
[4] = Hemoglobin disorder progenitors

SMILES: Oc1ccc(C=Cc2cc(O)cc(O)c2)cc1 [Resveratrol, resveratrol]
- activity compared with sodium Butyrate (γ-globin gene promoter; Ambroxol at 1 μM, Desloratadine at 1 μM, Benserazide at 0.03 μM (or a range of 30 nM-5 μM), NSC-95397 at 1 μM, versus sodium Butyrate at 2000 μM): significantly more active
- most active at inducing γ-globin mRNA expression (γ-globin gene promoter; Benserazide at 0.03 μM): most active
- % induction of γ-globin mRNA gene expression (γ-globin mRNA [1]; FIG. 4C, HFU-E (burst-forming units-erythroid) cells, Resveratrol 30 μM, desloratadine 50 μM, NSC 50 μM, Benserazine 5 μM): most significant % increase
- γ-globin mRNA induction (γ-globin mRNA [1]; cultured primary human erythroid progenitors, concentrations pharmacologically achievable in humans): up to 3 fold
- concentrations that induce fetal globin (HbF) mRNA (γ-globin mRNA [1]; primary erythroid progenitors in vitro): 0.05 µM
- concentration giving the most γ-globin mRNA expression (γ-globin mRNA [2]; FIG. 5, K562 cells, tested Desloratadine 10 μM-100 μM, Resveratrol 5 μM-30 μM, NSC 1 μM-50 μM): 30 µM
- % induction of γ-globin mRNA gene expression (γ-globin mRNA [2]; FIGS. 4A and 4B, K562 cells, Resveratrol 30 μM, desloratadine 50 μM, NSC 50 μM, Benserazine 5 μM): most significant % increase
- number of blood cells per colony (CB BFU-E cells): increase the number of blood cells per colony
- cytotoxicity / inhibition of erythroid cell proliferation (CB BFU-E cells; Desloratadine 1 μM-10 μM, Resveratrol 0.05 μM-5 μM, Benserazide 0.1 μM-10 μM): non-cytotoxic
- concentration that inhibits histone deacetylases (histone deacetylases): 0.05 µM
- fetal globin mRNA, Mean (γ-globin mRNA [3]; Cord Blood progenitors): 217 % of control
- responses (cultures with induced fetal globin mRNA) (γ-globin mRNA [3]; Cord Blood progenitors): 5/5
- fetal globin mRNA, Mean (γ-globin mRNA [3]; [4]): 245 % of control
- responses (cultures with induced fetal globin mRNA) (γ-globin mRNA [3]; [4]): 1/2
- fetal globin mRNA, Mean (γ-globin mRNA [3]; Normal progenitors): 122 % of control
- responses (cultures with induced fetal globin mRNA) (γ-globin mRNA [3]; Normal progenitors): 1/2
